Test: Induction period of fat with anti-oxidant
Format: physicochemical
Details: calculated on the fat; induction period established at 100° C.
Source text: Preferably the anti-oxidant is selected from the group consisting of natural and nature-identical anti-oxidants, citric acid, tartaric acid and precursors thereof. The most preferred anti-oxidant is α-tocopherol and mixtures of tocopherols, which are commercially available. Alpha-tocopherol is commonly present as a native anti-oxidant in vegetable fat. About 0.1 wt. % (calculated on the fat) of alpha-tocopherol is sufficient for increasing the induction period of the fat by a factor of 1.5 (effective concentration). The induction period is established at 100° C., using the method described in J. Am. Oil. Chem. Soc. Vol. 63, 6 (1986), 192-195.

effective concentration (increasing the induction period of the fat by a factor of 1.5): About 0.1 wt. %
SMILES: Cc1c(C)c2c(c(C)c1O)CCC(C)(CCCC(C)CCCC(C)CCCC(C)C)O2 (stereo not drawn) [alpha-tocopherol]

— US5783247A, “Flavoring composition containing oxidized triglyceride fats, fatty acids, of fatty acid derivatives” (Van Den Berg Foods Co., Division of Conopco, Inc., priority 1993, dated 1998)
